Results reported in ChEMBL document CHEMBL1201862, “PubChem BioAssay data set” (2004).
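These data come from cells grown in 96-well plates and exposed to compound for 48 hours at five concentrations. At the GI50, growth is halved.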 Activity calls are given as the source filed them. No stated cut-off is given here; in the data, active = GI50 up to about 1.1 µM and inactive = higher.

Key:
Test in all cases: growth of human tumour cells (NCI), 48 h
LXFL 529 = test system: LXFL 529
EKVX = test system: EKVX
HL-60 = test system: HL-60
SNB-75 = test system: SNB-75
HOP-62 = test system: HOP-62
SK-MEL-5 = test system: SK-MEL-5
SK-OV-3 = test system: SK-OV-3
HCC 2998 = test system: HCC 2998
SN12C = test system: SN12C
SW-620 = test system: SW-620
CAKI-1 = test system: CAKI-1
TK-10 = test system: TK-10
HCT-15 = test system: HCT-15
M14 = test system: M14
A498 = test system: A498
RPMI-8226 = test system: RPMI-8226
M19-MEL = test system: M19-MEL
ACHN = test system: ACHN
Malme-3M = test system: Malme-3M
SK-MEL-2 = test system: SK-MEL-2
KM-20L2 = test system: KM-20L2
HOP-92 = test system: HOP-92
NCI-H460 = test system: NCI-H460
SR = test system: SR
SF-295 = test system: SF-295
SNB-78 = test system: SNB-78
NCI-H226 = test system: NCI-H226
OVCAR-4 = test system: OVCAR-4
A549 = test system: A549
CCRF-CEM = test system: CCRF-CEM
SK-MEL-28 = test system: SK-MEL-28
DMS-273 = test system: DMS-273
KM12 = test system: KM12
HT-29 = test system: HT-29
XF498 = test system: XF498
UACC-257 = test system: UACC-257
786-0 = test system: 786-0
OVCAR-3 = test system: OVCAR-3
OVCAR-8 = test system: OVCAR-8
RXF 393 = test system: RXF 393
NCI-H23 = test system: NCI-H23
DMS-114 = test system: DMS-114
U-251 = test system: U-251
LOX IMVI = test system: LOX IMVI
MOLT-4 = test system: MOLT-4
K562 = test system: K562
UACC-62 = test system: UACC-62
IGROV-1 = test system: IGROV-1
UO-31 = test system: UO-31
OVCAR-5 = test system: OVCAR-5
COLO 205 = test system: COLO 205
SF-268 = test system: SF-268
SF-539 = test system: SF-539
SNB-19 = test system: SNB-19
DLD-1 = test system: DLD-1
HCT-116 = test system: HCT-116
HOP-18 = test system: HOP-18
NCI-H522 = test system: NCI-H522

Compound: COc1cc([C@H]2c3cc4c(cc3[C@H](NCc3ccc([N+](=O)[O-])cc3)C3COC(=O)[C@H]32)OCO4)cc(OC)c1O (stereo partly drawn)
- GI50 (LXFL 529): 5.07 µM (inactive)
- GI50 (EKVX): 3.18 µM (inactive)
- GI50 (HL-60): 1.02 µM (active)
- GI50 (SNB-75): 1.45 µM (inactive)
- GI50 (HOP-62): 0.26 µM (active)
- GI50 (SK-MEL-5): 2.29 µM (inactive)
- GI50 (SK-OV-3): 2.24 µM (inactive)
- GI50 (HCC 2998): 1.23 µM (inactive)
- GI50 (SN12C): 0.807 µM (active)
- GI50 (SW-620): 1.03 µM (active)
- GI50 (CAKI-1): 0.424 µM (active)
- GI50 (TK-10): 1.96 µM (inactive)
- GI50 (HCT-15): 1.61 µM
- GI50 (M14): 1.97 µM (inactive)
- GI50 (A498): 0.378 µM (active)
- GI50 (RPMI-8226): 0.938 µM (active)
- GI50 (M19-MEL): 3.85 µM (inactive)
- GI50 (ACHN): 0.378 µM (active)
- GI50 (Malme-3M): 1.56 µM (inactive)
- GI50 (SK-MEL-2): 4.38 µM (inactive)
- GI50 (KM-20L2): 2.48 µM (inactive)
- GI50 (HOP-92): 2.81 µM (inactive)
- GI50 (NCI-H460): < 0.0282 µM (active)
- GI50 (SR): 0.0333 µM (active)
- GI50 (SF-295): 0.681 µM (active)
- GI50 (SNB-78): 5.94 µM (inactive)
- GI50 (NCI-H226): 0.324 µM (active)
- GI50 (OVCAR-4): 72.8 µM (inactive)
- GI50 (A549): 0.213 µM (active)
- GI50 (CCRF-CEM): 0.251 µM (active)
- GI50 (SK-MEL-28): 5.45 µM (inactive)
- GI50 (DMS-273): 0.661 µM (active)
- GI50 (KM12): 2.44 µM (inactive)
- GI50 (HT-29): 2.17 µM (inactive)
- GI50 (XF498): 3.32 µM (inactive)
- GI50 (UACC-257): 7.96 µM (inactive)
- GI50 (786-0): 0.877 µM (active)
- GI50 (OVCAR-3): 3.08 µM (inactive)
- GI50 (OVCAR-8): 1.63 µM (inactive)
- GI50 (RXF 393): 3.37 µM (inactive)
- GI50 (NCI-H23): 0.398 µM (active)
- GI50 (DMS-114): 2.62 µM (inactive)
- GI50 (U-251): 0.655 µM (active)
- GI50 (LOX IMVI): 0.92 µM (active)
- GI50 (MOLT-4): 0.106 µM (active)
- GI50 (K562): 3.18 µM (inactive)
- GI50 (UACC-62): 1.07 µM (active)
- GI50 (IGROV-1): 12.3 µM (inactive)
- GI50 (UO-31): 1.79 µM (inactive)
- GI50 (OVCAR-5): 2.89 µM (inactive)
- GI50 (COLO 205): 2.52 µM (inactive)
- GI50 (SF-268): 1.47 µM (inactive)
- GI50 (SF-539): 0.745 µM (active)
- GI50 (SNB-19): 1.01 µM (active)
- GI50 (DLD-1): 2.7 µM (inactive)
- GI50 (HCT-116): 2.36 µM (inactive)

Compound: Cc1ccccc1NC(=O)c1cc2cc(/N=N/c3ccccc3C(=O)O)ccc2oc1=O
- GI50 (EKVX): 48.6 µM (inactive)
- GI50 (HL-60): 19.5 µM (inactive)
- GI50 (SNB-75): 11.5 µM (inactive)
- GI50 (HOP-62): 21.4 µM (inactive)
- GI50 (SK-MEL-5): 14.5 µM (inactive)
- GI50 (SK-OV-3): 28.2 µM (inactive)
- GI50 (SN12C): 18.6 µM (inactive)
- GI50 (SW-620): 27.4 µM (inactive)
- GI50 (HOP-18): 15 µM (inactive)
- GI50 (TK-10): 48.2 µM (inactive)
- GI50 (HCT-15): 10.6 µM
- GI50 (M14): 16.7 µM (inactive)
- GI50 (RPMI-8226): 15.9 µM (inactive)
- GI50 (M19-MEL): 9.38 µM (inactive)
- GI50 (ACHN): 33.3 µM (inactive)
- GI50 (Malme-3M): 6.75 µM (inactive)
- GI50 (SK-MEL-2): 22.8 µM (inactive)
- GI50 (KM-20L2): 16.9 µM (inactive)
- GI50 (NCI-H460): 21.1 µM (inactive)
- GI50 (SF-295): 18.5 µM (inactive)
- GI50 (NCI-H226): 20.8 µM (inactive)
- GI50 (NCI-H522): 12.3 µM (inactive)
- GI50 (A549): 33.4 µM (inactive)
- GI50 (CCRF-CEM): 19.7 µM (inactive)
- GI50 (SK-MEL-28): 13.5 µM (inactive)
- GI50 (DMS-273): 21 µM (inactive)
- GI50 (KM12): 12.6 µM (inactive)
- GI50 (HT-29): 15.2 µM (inactive)
- GI50 (UACC-257): 10.3 µM (inactive)
- GI50 (786-0): 27.1 µM (inactive)
- GI50 (OVCAR-3): 34.8 µM (inactive)
- GI50 (OVCAR-8): 29.6 µM (inactive)
- GI50 (RXF 393): 17.4 µM (inactive)
- GI50 (NCI-H23): 3.11 µM (inactive)
- GI50 (DMS-114): 14.6 µM (inactive)
- GI50 (U-251): 21.4 µM (inactive)
- GI50 (LOX IMVI): 16.4 µM (inactive)
- GI50 (MOLT-4): 18.7 µM (inactive)
- GI50 (K562): 23.6 µM (inactive)
- GI50 (UACC-62): 4.7 µM (inactive)
- GI50 (IGROV-1): 25 µM (inactive)
- GI50 (UO-31): 20.6 µM (inactive)
- GI50 (COLO 205): 12.9 µM (inactive)
- GI50 (SF-539): 18 µM (inactive)
- GI50 (SNB-19): > 10 µM (inactive)
- GI50 (DLD-1): 16.7 µM (inactive)
- GI50 (HCT-116): 20.7 µM (inactive)
